Consider 18 molecules from US5244905A, “N-substituted cycloalkyl and polycycloalkyl polyhydro-β-carboline-phenylalanine- and phenethylamine derivatives” (Warner-Lambert Company, priority 1991, dated 1993).

Test [1] has as its target T1, Central CCK Receptors (Mus musculus, UniProt P56481).
T1 construct: from tissue; host or cells: cerebral cortex of male CFLP mice (washed membranes)
T1 sequence (P56481 1-453): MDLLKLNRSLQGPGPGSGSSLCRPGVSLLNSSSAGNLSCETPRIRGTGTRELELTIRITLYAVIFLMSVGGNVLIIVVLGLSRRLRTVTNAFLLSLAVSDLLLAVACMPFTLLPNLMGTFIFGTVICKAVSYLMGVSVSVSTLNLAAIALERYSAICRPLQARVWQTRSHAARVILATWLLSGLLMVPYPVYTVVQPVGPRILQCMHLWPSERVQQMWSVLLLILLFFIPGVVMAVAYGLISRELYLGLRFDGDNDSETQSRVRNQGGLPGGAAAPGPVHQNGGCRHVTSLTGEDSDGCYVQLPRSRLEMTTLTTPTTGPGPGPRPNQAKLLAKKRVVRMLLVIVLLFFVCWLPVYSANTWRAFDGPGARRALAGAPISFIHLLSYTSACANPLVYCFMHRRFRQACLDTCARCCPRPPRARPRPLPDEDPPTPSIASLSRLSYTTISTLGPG
In words: Binding to central CCK receptors ([3H]-pentagastrin displacement, mouse cerebral cortical membranes). Details: species or system mouse (male CFLP). To be noted: tritiated pentagastrin 2 nM, number of assays (n) = 2. The procedure: (§1) The biological activity of compounds of the present invention was evaluated employing an initial screening test which rapidly and accurately measured the binding of the tested compound to known CCK receptor sites. […] (See Hays et al, Neuropeptides 1:53-62, 1980; and Satuer et al, Science, 208:1155-1156, 1980.
(§2) In this screening test, the cerebral cortices taken from male CFLP mice weighing between 30-40 g were dissected on ice, weighed, and homogenized in 10 volumes of 50 mM Tris-HCl buffer (pH 7.4 at 0°-4° C.). The resulting suspension was centrifuged, the supernate was discarded, and the pellet was washed by resuspension in Tris-HCl buffer followed by recentrifugation. The final pellet was resuspended in 20 volumes of […] Hepes buffer (pH 7.2 at 23° C.) containing 130 mM NaCl, […] KCl, […] MgCl2, […] EDTA, 5 mg/mL bovine albumin, and bacitracin (0.25 mg/mL).
(§3) In saturation studies, cerebral cortical membranes were incubated at 23° C. for 120 minutes in a final volume of 500 μliter of Hepes incubation buffer (pH 7.2) together with 0.2-20 nM tritiated-pentagastrin (Amersham International, England).
(§4) In the displacement experiments, membranes were incubated with a single concentration (2 nM) of ligand, together with increasing concentrations ([…]) of competitive test compound. In each case, the nonspecific binding was defined as that persisting in the presence of the unlabeled octapeptide CCK26-33 (10^-6 M).
(§5) Following incubation, radioactivity bound to membranes was separated from that free in solution by rapid filtration through Whatman GF/B filters and washed three times with 4 mL of ice cold Tris-HCl buffer. Filters from samples incubated with tritiated-pentagastrin were placed in polyethylene vials with 4 mL of scintillation cocktail, and the radioactivity was estimated by liquid scintillation spectrometry (efficiency 47% to 52%).
(§6) The specific binding to CCK receptor sites was defined as the total bound tritiated-pentagastrin minus the amount of tritiated-pentagastrin bound in the presence of 10^-6 octapeptide, CCK26-33.
(§7) Saturation curves for specific tritiated-pentagastrin binding to mouse cortical membranes were analyzed by the methods of Scatchard (Ann. New York Acad. Sci. 51:660 672, 1949, and Hill (J. Physiol. 40:IV-VIII, 1910, to provide estimates for the maximum number of binding sites (Bmax) and the equilibrium dissociation constant ([…]).
(§8) In displacement experiments, inhibition curves were analyzed by either logit-log plots or the iterative curve fitting computer program ALLFIT (DeLean, Munson and Redbard, 1978) to provide estimates of the IC50 and nH (apparent Hill coefficient) values). (IC50 values were defined as the concentration of test compound required to produce 50% inhibition of specific binding.)
(§9) The inhibition constant (Ki) of the test compound was then calculated according to the Cheng-Prusoff equation: [formula] where [L] is the concentration of radiolabel and Ka is the equilibrium dissociation constant.
The Ki values for several representative compounds of the present invention are present in Table II.

Test [2] concerns the target T2, CCK-B receptor (Mus musculus, UniProt P56481).
T2 construct: from tissue
T2 sequence (P56481 1-453): T1 sequence (P56481 1-453)
The experiment in a line: Binding to the CCK-B receptor (Table III). Details: species or system mouse (male CFLP). The procedure:
as §1, §2, §3, §4, §5, §6, §7, §8, §9

Structures are written as SMILES.

For the molecule `CC(C)(C)OC(=O)N1Cc2[nH]c3ccccc3c2CC1C(=O)NC(Cc1ccccc1)C(=O)O` (stereo not shown) [Example 18, 3-[[1(I-Carboxy-2-phenethyl)amino]carbonyl]-1,3,4,9-tetrahydro-2H-pyrido[3,4-b]indole-2-carboxylic acid, 1,1-dimethylethyl ester], the Ki in test [1] and in test [2] was 6000 nM each time.
`CC1(C(=O)NCCc2ccccc2)Cc2c([nH]c3ccccc23)CN1S(=O)(=O)NC1C2CC3CC(C2)CC1C3` (racemic) [Example 19, (+/-)-1,3,4,9-Tetrahydro-3-methyl-N-(2-phenylethyl)-2-(tricyclo[(3.3.1.1^3,7]dec-2-ylamino]sulfonyl]1H-pyrido-[3,4-b]indole-3-carboxamide]: the “Ki CCK-B” value in test [2] is given as “iA”.
In the case of `CC1(C(=O)NCC(NC(=O)/C=C\C(=O)O)c2ccccc2)Cc2c([nH]c3ccccc23)CN1C(=O)OC1C2CC3CC(C2)CC1C3` (mixture of isomers) [Example 15, 3-[[[2-[(3-Carboxy-1-oxo-2-propenyl)amino]-b 2-phenethyl]amino]carbonyl]1,3,4,9-tetrahydro-3-methyl-2H-pyrido[3,4-b]indole-2-carboxylic acid, [tricyclo-[3.3.1.1^3.7]dec-2-yl ester (mixture of diastereomers)], the inhibitory constant (Ki) in test [1] and in test [2] was 710 nM each time.
`CC1(C(=O)N[C@@H](CO)[C@@H](O)c2ccccc2)Cc2c([nH]c3ccccc23)CN1C(=O)OC1C2CC3CC(C2)CC1C3` (stereo partly shown) [Example 7, 1,3,4,9-Tetrahydro-3-[[[1-(hydroxymethyl)-2-hydroxy-2-phenylethyl]amino]carbonyl]-3-methyl-2H-pyrido[3,4-b]-indole-2-carboxylic acid,tricyclo[3.3.1.1^3,7]dec-2-yl ester]: the Ki in test [1] and in test [2] was 860 nM in each case.
Turning to `CC1(C(=O)NCC(OC(=O)CCC(=O)O)c2ccccc2)Cc2c([nH]c3ccccc23)CN1C(=O)OC1C2CC3CC(C2)CC1C3` (stereo not shown) [Example 13], the Ki in test [1] and in test [2] was 1000 nM in each case.
On to `CC1(C(=O)NCC(NC(=O)CCC(=O)O)c2ccccc2)Cc2c([nH]c3ccccc23)CN1C(=O)OC1C2CC3CC(C2)CC1C3` (stereo not drawn) [Example 9, 3-[[[2-(3-Carboxy-1-oxopropyl)-amino]-2-phenylethyl]amino]carbonyl]-1,3,4,9-tetrahydro-3-methyl-2H-pyrido[3,4-b]indole-2-carboxylic acid, tricyclo[3.3.1.1^3,7]dec-2-yl ester, [R-(R*,R*)] and [R-(R*,S*)]-], for which the Ki in test [1] and in test [2] was 500 nM throughout.
For `CC1(C(=O)NCC(NC(=O)CC(=O)O)c2ccccc2)Cc2c([nH]c3ccccc23)CN1C(=O)OC1C2CC3CC(C2)CC1C3` (mixture of isomers) [Example 14, 3-[[[2-[(3-Carboxyacetyl)amino]-2-phenethyl]-amino]-carbonyl]-1,3,4,9-tetrahydro-3-methyl-2H-pyrido[3,4-b]indole-2-carboxylic acid, [tricyclo-[3.3.1.1^3,7]dec-2-yl ester (mixture of diastereomers)], the inhibition constant Ki in test [1] and in test [2] was 1000 nM throughout.
As to `CC1(C(=O)NCC(NC(=O)CCC(=O)OCc2ccccc2)c2ccccc2)Cc2c([nH]c3ccccc23)CN1C(=O)OC1C2CC3CC(C2)CC1C3` (mixture of isomers) [Example 11, 3-[3-[3-[2-[2-[1,4-Dioxo-4-(phenylmethoxy)butyl]amino]-2-phenylethyl]amino]carbonyl]-1,3,4,9-tetrahydro-3-methyl]-2H-pyrido[3,4-b]indole-2-carboxylic acid, tricyclo[3.3.1.1^3.7]dec-2-yl ester (mixture of diastereomers)], the Ki in test [1] and in test [2] was 3000 nM throughout.
In the case of `CC1(C(=O)NCC(N)c2ccccc2)Cc2c([nH]c3ccccc23)CN1C(=O)OC1C2CC3CC(C2)CC1C3` (mixture of isomers) [Example 8, 3-[[(2-Amino-2-phenylethyl)amino]carbonyl]-1,3,4,9-tetrahydro-3-methyl]-2H-pyrido[3,4-b]indole-2-carboxylic acid, tricyclo[3.3.1.1^3,7]dec-2-yl ester, (mixtures of diastereomers)], the Ki in test [1] and in test [2] was 3000 nM throughout.
As to `CC1(C(=O)N[C@H](CO)Cc2ccccc2)Cc2c([nH]c3ccccc23)CN1C(=O)OC1C2CC3CC(C2)CC1C3` (mixture of isomers) [Example 4, 1,3,4,9-Tetrahydro-3-[[[1-(hydroxymethyl)-2-phenylethyl]amino]carbonyl]-3-methyl-2H-pyrido[3,4-b]indole-2-carboxylic acid,tricyclo[3.3.1.1^3,7]dec-2-yl ester (mixture of diastereomers)], the Ki in test [1] and in test [2] was 500 nM each time.
With `C[C@@]1(C(=O)N[C@H](CO)Cc2ccccc2)Cc2c([nH]c3ccccc23)CN1C(=O)OC1C2CC3CC(C2)CC1C3` (stereo partly drawn) [Example 6, (S)-1,3,4,9-Tetrahydro-3-[[[1-(hydroxymethyl)-2-phenylethyl]amino]carbonyl]-3-methyl-2H-pyrido[3,4-b]indole-2-carboxylic acid,tricyclo[3.3.1.1^3,7]dec-2-yl ester ester], the Ki in test [1] and in test [2] was 1500 nM throughout.
As for `C[C@@]1(C(=O)NCCc2ccccc2)Cc2c([nH]c3ccccc23)CN1C(=O)OC1C2CC3CC(C2)CC1C3` (stereo partly shown) [Example 3], the “Ki CCK-B” value in test [2] was “iA”.
With `CC1(C(=O)NCC(O)c2ccccc2)Cc2c([nH]c3ccccc23)CN1C(=O)OC1C2CC3CC(C2)CC1C3` (stereo not shown) [Example 12], the Ki in test [1] and in test [2] was 710 nM each time.
As for `CC1(C(=O)NCCc2ccccc2)Cc2c([nH]c3ccccc23)CN1C(=O)OC1C2CC3CC(C2)CC1C3` (racemic) [Example 1, (±)1,3,4,9-Tetrahydro-3-methyl-3-[[2-phenylethyl)amino]carbonyl]-2H-pyrido[3,4-b]indole-2-carboxylic acid,tricyclo[3.3.1.1^3,7]dec-2-yl ester], the Ki in test [1] and in test [2] was 150 nM throughout.
Regarding `C[C@]1(C(=O)NCCc2ccccc2)Cc2c([nH]c3ccccc23)CN1C(=O)OC1C2CC3CC(C2)CC1C3` (stereo partly shown) [Example 2], the Ki in test [1] and in test [2] was 600 nM in each case.
With `C[C@]1(C(=O)N[C@H](CO)Cc2ccccc2)Cc2c([nH]c3ccccc23)CN1C(=O)OC1C2CC3CC(C2)CC1C3` (stereo partly shown) [Example 5], the Ki in test [1] and in test [2] was 730 nM throughout.
`O=C(NCCc1ccccc1)C1Cc2c([nH]c3ccccc23)CN1C(=O)OC1C2CC3CC(C2)CC1C3` (racemic) [Example 17]: the Ki in test [1] and in test [2] was 990 nM throughout.
In the case of `CC1(C(=O)N[C@H](CNC(=O)CCC(=O)O)Cc2ccccc2)Cc2c([nH]c3ccccc23)CN1C(=O)OC1C2CC3CC(C2)CC1C3` (mixture of isomers) [Example 16, 3-[[1-(3-Carboxy-1-oxopropyl)amino]methyl]-1-phenethyl]amino]carbonyl]-1,3,4,9-tetrahydro-3-methyl2H-pyrido[3,4-b]indole-2-carboxylic acid, [tricyclo-[3.3.1.1^3,7]dec-2 yl ester (mixture of diastereomers)], the Ki in test [1] and in test [2] was 305 nM throughout.

By Ki is commonly meant the dissociation constant of the complex between target and ligand, obtained from inhibition or displacement. A high value points to lower affinity.
